# Source: ChEMBL document CHEMBL3525934 (Drug Metab Dispos, 2013)
# How the values were obtained:
# Format in all cases: ADME
# Settings in all cases: 0.5 h
# Cytochrome P450 2D6 [1] = biological target: T1, Cytochrome P450 2D6 (Homo sapiens, UniProt P10635); experiment: Drug metabolism in supersomes expressing human recombinant CYP2D6 assessed as enzyme-mediated N-desmethylclozapine metabolite formation at 10 uM after 30 mins measured per nmol of P450 by HPLC analysis
# Cytochrome P450 2C19 [2] = biological target: T2, Cytochrome P450 2C19 (Homo sapiens, UniProt P33261); experiment: Drug metabolism in supersomes expressing human recombinant CYP2C19 assessed as enzyme-mediated N-desmethylclozapine metabolite formation at 10 uM after 30 mins measured per nmol of P450 by HPLC analysis
# Cytochrome P450 2C19 [3] = biological target: T2, Cytochrome P450 2C19; experiment: Drug metabolism in supersomes expressing human recombinant CYP2C19 assessed as enzyme-mediated clozapine-N-oxide metabolite formation at 10 uM after 30 mins measured per nmol of P450 by HPLC analysis
# Cytochrome P450 1A2 [4] = biological target: T3, Cytochrome P450 1A2 (Homo sapiens, UniProt P05177); experiment: Drug metabolism in supersomes expressing human recombinant CYP1A2 assessed as enzyme-mediated total GSH conjugate formation at 10 uM after 30 mins measured per nmol of P450 by HPLC analysis in presence of GSH and hGST P1-1
# T3 sequence (P05177 whole entry): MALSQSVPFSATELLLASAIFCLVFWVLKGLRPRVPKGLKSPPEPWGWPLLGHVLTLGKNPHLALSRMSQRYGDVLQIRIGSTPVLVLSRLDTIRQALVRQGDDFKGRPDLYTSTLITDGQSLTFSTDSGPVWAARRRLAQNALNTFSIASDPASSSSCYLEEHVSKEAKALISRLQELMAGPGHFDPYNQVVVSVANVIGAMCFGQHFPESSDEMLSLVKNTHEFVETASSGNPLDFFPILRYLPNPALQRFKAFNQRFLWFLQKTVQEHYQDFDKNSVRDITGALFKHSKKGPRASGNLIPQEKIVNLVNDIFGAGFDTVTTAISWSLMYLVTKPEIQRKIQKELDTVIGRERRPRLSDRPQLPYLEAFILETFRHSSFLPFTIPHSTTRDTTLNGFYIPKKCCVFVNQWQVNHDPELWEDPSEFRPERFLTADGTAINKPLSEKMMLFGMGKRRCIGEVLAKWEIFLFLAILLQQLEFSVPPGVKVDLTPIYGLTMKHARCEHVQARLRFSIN
# Cytochrome P450 1B1 [5] = biological target: T4, Cytochrome P450 1B1 (Homo sapiens, UniProt Q16678); experiment: Drug metabolism in supersomes expressing human recombinant CYP1B1 assessed as enzyme-mediated total GSH conjugate formation at 10 uM after 30 mins measured per nmol of P450 by HPLC analysis in presence of GSH and hGST P1-1
# T4 sequence (Q16678 whole entry): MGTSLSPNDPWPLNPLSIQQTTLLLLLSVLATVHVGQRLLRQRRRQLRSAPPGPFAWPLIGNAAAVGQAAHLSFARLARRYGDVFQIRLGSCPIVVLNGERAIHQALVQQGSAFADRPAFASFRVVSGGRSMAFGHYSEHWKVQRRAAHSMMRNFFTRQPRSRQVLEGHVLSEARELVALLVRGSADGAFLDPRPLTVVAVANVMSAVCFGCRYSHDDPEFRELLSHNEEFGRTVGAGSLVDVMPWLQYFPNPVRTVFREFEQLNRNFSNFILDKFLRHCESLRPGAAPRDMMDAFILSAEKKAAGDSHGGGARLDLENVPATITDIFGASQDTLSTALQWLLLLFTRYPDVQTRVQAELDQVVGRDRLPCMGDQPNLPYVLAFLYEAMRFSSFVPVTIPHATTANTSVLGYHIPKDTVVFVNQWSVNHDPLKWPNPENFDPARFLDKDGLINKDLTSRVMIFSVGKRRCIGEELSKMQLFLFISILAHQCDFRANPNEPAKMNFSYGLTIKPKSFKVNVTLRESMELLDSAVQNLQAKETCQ
# Cytochrome P450 1A2 [6] = biological target: T3, Cytochrome P450 1A2; experiment: Drug metabolism in supersomes expressing human recombinant CYP1A2 assessed as enzyme-mediated total GSH conjugate formation at 100 uM after 30 mins measured per nmol of P450 by HPLC analysis in presence of GSH and hGST P1-1
# Cytochrome P450 1B1 [7] = biological target: T4, Cytochrome P450 1B1; experiment: Drug metabolism in supersomes expressing human recombinant CYP1B1 assessed as enzyme-mediated total GSH conjugate formation at 100 uM after 30 mins measured per nmol of P450 by HPLC analysis in presence of GSH and hGST P1-1
# Cytochrome P450 2C19 [8] = biological target: T2, Cytochrome P450 2C19; experiment: Drug metabolism in supersomes expressing human recombinant CYP2C19 assessed as enzyme-mediated N-desmethylclozapine metabolite formation at 100 uM after 30 mins measured per nmol of P450 by HPLC analysis
# Cytochrome P450 2D6 [9] = biological target: T1, Cytochrome P450 2D6; experiment: Drug metabolism in supersomes expressing human recombinant CYP2D6 assessed as enzyme-mediated N-desmethylclozapine metabolite formation at 100 uM after 30 mins measured per nmol of P450 by HPLC analysis
# T2 sequence (P33261 whole entry): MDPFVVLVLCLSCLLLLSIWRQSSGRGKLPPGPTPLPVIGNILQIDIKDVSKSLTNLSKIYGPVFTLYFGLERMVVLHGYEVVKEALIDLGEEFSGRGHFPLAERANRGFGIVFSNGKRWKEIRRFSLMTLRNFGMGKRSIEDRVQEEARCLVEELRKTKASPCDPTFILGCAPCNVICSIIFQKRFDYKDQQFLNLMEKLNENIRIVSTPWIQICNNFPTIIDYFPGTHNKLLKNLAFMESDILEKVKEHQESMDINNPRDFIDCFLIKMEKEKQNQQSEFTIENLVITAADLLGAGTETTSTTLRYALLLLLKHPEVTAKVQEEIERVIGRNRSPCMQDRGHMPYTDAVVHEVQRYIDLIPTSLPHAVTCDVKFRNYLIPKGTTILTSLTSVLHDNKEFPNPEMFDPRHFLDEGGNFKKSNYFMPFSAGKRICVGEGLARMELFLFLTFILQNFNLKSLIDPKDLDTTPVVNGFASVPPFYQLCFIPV
# T1 sequence (P10635 whole entry): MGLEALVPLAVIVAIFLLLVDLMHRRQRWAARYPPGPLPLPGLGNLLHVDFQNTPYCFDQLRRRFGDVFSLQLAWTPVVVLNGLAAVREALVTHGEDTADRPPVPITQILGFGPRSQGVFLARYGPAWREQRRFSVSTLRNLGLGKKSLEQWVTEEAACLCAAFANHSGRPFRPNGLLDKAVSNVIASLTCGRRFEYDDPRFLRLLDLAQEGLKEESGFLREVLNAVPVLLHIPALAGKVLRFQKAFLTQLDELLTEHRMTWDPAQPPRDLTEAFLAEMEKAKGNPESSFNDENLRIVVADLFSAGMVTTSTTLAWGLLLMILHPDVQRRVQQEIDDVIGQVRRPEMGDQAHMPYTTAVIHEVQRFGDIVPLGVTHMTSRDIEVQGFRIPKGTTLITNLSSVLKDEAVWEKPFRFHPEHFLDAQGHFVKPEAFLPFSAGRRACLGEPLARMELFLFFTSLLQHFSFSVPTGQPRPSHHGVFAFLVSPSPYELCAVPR
compound,measurement,setting,value
CN1CCN(C2=Nc3cc(Cl)ccc3Nc3ccccc32)CC1 [CLOZAPINE],Drug metabolism,Cytochrome P450 2D6 [1],8.43 nmol/min/nmol P450
same,Drug metabolism,Cytochrome P450 2C19 [2],6.62 nmol/min/nmol P450
same,Drug metabolism,Cytochrome P450 2C19 [3],0.71 nmol/min/nmol P450
same,Drug metabolism,Cytochrome P450 1A2 [4],0.06 nmol/min
same,Drug metabolism,Cytochrome P450 1B1 [5],0.15 nmol/min
same,Drug metabolism,Cytochrome P450 1A2 [6],0.25 nmol/min
same,Drug metabolism,Cytochrome P450 1B1 [7],0.15 nmol/min
same,Drug metabolism,Cytochrome P450 2C19 [8],5.11 nmol/min
same,Drug metabolism,Cytochrome P450 2D6 [9],23.7 nmol/min
